Reference: the NIST ThermoML archive (doi:10.1016/j.jct.2018.10.015)

Test: xn = mol fraction of the nth substance listed
Settings: 101.3 kPa, Liquid; for viscosity: Concentric cylinders viscometry; for mass density: Vibrating tube method

CCn1cc[n+](C)c1C.O=S(=O)([N-]S(=O)(=O)C(F)(F)F)C(F)(F)F + COC(=O)OC
Settings | mass density, 313.15 K [kg/m3] | mass density, 318.15 K [kg/m3] | mass density, 323.15 K [kg/m3] | mass density, 328.15 K [kg/m3] | viscosity, 313.15 K [mPa·s] | viscosity, 318.15 K [mPa·s] | viscosity, 323.15 K [mPa·s] | viscosity, 328.15 K [mPa·s]
x1 = 0.099 | 1164.8 | 1158.7 | 1152.5 | 1146.3 | 1.276 | 1.193 | 1.114 | 1.042
x1 = 0.1994 | 1246.8 | 1241.2 | 1235.5 | 1230 | 2.192 | 2.023 | 1.87 | 1.737
x1 = 0.298 | 1303.4 | 1298 | 1292.7 | 1287.3 | 3.619 | 3.308 | 3.037 | 2.802
x1 = 0.4006 | 1347.3 | 1342.1 | 1336.9 | 1331.7 | 5.728 | 5.173 | 4.699 | 4.286
x1 = 0.5003 | 1380.4 | 1375.3 | 1370.2 | 1365.2 | 8.44 | 7.511 | 6.73 | 6.083
x1 = 0.5738 | 1400.5 | 1395.5 | 1390.5 | 1385.5 | 11.05 | 9.74 | 8.649 | 7.757
x1 = 0.6927 | 1427.5 | 1422.6 | 1417.6 | 1412.7 | 16.38 | 14.24 | 12.48 | 11.06
x1 = 0.8138 | 1449.7 | 1444.8 | 1440 | 1435.1 | 23.62 | 20.25 | 17.52 | 15.34
x1 = 0.8951 | 1462.2 | 1457.4 | 1452.6 | 1447.8 | 29.48 | 25.06 | 21.53 | 18.72
x1 = 1 | 1476.7 | 1472 | 1467.2 | 1462.4 | 39.24 | 33 | 28.05 | 24.16
